Reference: ChEMBL document CHEMBL1909046, “DrugMatrix in vitro pharmacology data”
pIC50, pKi: −log10 of the molar value. Where a SMILES comes first, the peptide text is derived from it. Bridges are numbered along the chain shown (N, C = ends). [ ]: non-standard residue; d: D form. The star is where a group is joined. Ileψ(thiazoline)Cys = CC[C@H](C)[C@H](N)C1=N[C@H](C(=O)*)CS1; dOrn = NCCC[C@@H](N)C(=O)O

What was measured:
Cytochrome P450 1A2 = molecular target: T1, Cytochrome P450 1A2 (Homo sapiens, UniProt P05177); conditions: bti-tn-5b1-4; also: in other assays of this panel Not Active means under 50% inhibition at 10 µM
T1 sequence (P05177 whole entry): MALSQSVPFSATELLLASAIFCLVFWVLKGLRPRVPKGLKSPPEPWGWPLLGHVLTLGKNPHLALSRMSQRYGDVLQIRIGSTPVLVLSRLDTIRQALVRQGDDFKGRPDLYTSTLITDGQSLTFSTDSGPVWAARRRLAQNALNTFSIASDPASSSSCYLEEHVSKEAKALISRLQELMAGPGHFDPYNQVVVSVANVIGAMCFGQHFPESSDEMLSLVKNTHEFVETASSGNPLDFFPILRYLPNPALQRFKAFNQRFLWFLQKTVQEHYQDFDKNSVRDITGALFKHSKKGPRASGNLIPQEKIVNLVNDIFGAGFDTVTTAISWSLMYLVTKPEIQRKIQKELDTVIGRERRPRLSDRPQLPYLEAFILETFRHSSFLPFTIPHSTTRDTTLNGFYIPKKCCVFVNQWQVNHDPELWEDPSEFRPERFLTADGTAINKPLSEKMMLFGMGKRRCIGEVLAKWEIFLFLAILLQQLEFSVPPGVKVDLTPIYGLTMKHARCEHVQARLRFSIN

D(1A) dopamine receptor = D(1A) dopamine receptor (Homo sapiens, UniProt P21728); experiment: DRUGMATRIX: Dopamine D1 radioligand binding (ligand: [3H] SCH-23390); format: cell membranes, CHO, Membrane; conditions: Not Active = under 50% inhibition at 10 µM; for IC50 / Ki: cho
D(1A) dopamine receptor, sequence (P21728 whole entry): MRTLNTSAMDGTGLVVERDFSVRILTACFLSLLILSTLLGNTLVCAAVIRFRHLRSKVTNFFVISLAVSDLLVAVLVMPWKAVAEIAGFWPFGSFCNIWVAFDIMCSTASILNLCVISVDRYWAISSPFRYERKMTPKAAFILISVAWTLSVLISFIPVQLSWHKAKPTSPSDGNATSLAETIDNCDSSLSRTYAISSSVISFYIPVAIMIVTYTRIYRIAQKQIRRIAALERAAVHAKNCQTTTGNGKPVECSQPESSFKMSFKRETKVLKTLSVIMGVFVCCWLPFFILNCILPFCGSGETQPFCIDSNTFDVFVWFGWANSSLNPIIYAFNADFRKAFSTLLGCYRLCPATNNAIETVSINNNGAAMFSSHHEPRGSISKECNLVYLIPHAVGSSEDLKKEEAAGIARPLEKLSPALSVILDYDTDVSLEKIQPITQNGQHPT

Cytochrome P450 2E1 = Cytochrome P450 2E1 (Homo sapiens, UniProt P05181); conditions: bti-tn-5b1-4; also: in other assays of this panel Not Active means under 50% inhibition at 10 µM
Cytochrome P450 2E1, sequence (P05181 whole entry): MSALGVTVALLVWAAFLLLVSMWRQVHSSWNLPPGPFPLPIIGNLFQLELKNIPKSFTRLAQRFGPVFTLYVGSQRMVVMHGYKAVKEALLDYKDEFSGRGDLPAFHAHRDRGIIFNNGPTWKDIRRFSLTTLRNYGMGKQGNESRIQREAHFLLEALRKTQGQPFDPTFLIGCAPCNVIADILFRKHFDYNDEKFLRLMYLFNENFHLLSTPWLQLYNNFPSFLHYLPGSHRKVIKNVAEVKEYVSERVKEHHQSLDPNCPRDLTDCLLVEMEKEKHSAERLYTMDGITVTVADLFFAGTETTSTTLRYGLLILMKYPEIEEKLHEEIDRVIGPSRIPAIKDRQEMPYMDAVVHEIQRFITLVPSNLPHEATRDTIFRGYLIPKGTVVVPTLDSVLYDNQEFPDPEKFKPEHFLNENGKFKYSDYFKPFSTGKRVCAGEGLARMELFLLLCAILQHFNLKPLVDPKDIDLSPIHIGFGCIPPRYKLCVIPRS

[1] = molecular target: cGMP-specific 3',5'-cyclic phosphodiesterase (Homo sapiens, UniProt O76074); experiment: DRUGMATRIX: Phosphodiesterase PDE5 enzyme inhibition (substrate: [3H]cGMP + cGMP); format: tissue-based, Platelet; conditions: platelet; Not Active = under 50% inhibition at 10 µM
Glycine receptor = Glycine receptor (Rattus norvegicus, UniProt P22771+P24524+P07727+P20781); format: cell membranes, Wistar, Spinal cord, Membrane; also: in other assays of this panel Not Active means under 50% inhibition at 10 µM
[2] = molecular target: T2, Alpha-1B adrenergic receptor (Rattus norvegicus, UniProt P15823); experiment: DRUGMATRIX: Alpha-1B adrenergic receptor radioligand binding (ligand: prazosin); format: cell membranes, Wistar, Liver, Membrane; conditions: Not Active = under 50% inhibition at 10 µM
T2 sequence (P15823 whole entry): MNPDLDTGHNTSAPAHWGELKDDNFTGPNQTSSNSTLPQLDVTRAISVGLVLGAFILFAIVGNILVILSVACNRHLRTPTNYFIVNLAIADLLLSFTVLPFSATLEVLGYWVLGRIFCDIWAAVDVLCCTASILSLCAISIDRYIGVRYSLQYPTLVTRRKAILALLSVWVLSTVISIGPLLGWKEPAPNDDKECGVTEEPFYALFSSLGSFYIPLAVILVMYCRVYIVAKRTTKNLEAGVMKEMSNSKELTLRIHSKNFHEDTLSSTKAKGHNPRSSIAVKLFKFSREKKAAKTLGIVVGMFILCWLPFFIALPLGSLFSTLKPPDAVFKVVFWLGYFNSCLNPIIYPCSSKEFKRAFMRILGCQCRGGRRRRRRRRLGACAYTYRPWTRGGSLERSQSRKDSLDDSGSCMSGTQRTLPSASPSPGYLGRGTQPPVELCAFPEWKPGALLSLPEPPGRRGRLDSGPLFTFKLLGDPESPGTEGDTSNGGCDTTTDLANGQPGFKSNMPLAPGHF

[3] = molecular target: T3, 3-hydroxy-3-methylglutaryl-coenzyme A reductase (Homo sapiens, UniProt P04035); parameters: species or system Escherichia coli;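 also: enzyme inhibition assay of HMG-CoA reductase using radiolabeled [14C]HMG-CoA as substrate; in other assays of this panel Not Active means under 50% inhibition at 10 µM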
T3 sequence (P04035 whole entry): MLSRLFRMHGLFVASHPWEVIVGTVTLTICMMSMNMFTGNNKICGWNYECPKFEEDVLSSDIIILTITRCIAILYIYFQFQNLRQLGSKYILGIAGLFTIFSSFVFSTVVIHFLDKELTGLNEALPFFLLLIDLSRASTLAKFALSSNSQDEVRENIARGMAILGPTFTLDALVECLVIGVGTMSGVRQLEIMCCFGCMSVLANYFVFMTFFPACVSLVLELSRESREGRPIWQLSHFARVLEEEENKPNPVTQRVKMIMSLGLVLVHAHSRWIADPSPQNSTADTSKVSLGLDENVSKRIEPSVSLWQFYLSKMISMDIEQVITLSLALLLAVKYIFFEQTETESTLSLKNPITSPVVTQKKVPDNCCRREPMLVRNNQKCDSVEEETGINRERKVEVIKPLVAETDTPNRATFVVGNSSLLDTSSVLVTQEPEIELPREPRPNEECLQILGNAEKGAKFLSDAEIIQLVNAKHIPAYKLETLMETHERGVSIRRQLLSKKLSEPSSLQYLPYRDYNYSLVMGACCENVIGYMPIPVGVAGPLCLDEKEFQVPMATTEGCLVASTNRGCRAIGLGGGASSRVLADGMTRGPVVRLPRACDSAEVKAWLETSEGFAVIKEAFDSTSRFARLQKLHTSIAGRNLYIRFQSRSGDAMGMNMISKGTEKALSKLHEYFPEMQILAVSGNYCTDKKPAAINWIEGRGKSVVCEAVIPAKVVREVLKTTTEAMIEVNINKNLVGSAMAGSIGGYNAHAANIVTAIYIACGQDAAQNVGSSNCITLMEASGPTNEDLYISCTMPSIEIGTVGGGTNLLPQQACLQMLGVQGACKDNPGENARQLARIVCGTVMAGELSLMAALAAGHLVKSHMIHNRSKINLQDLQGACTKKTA

[4] = molecular target: Protein kinase C alpha type (Homo sapiens, UniProt P17252); format: cell-based; conditions: sf9
[5] = molecular target: Voltage-gated inwardly rectifying potassium channel KCNH2 (Homo sapiens, UniProt Q12809); conditions: hek293; also: in other assays of this panel Not Active means under 50% inhibition at 10 µM
Voltage-gated inwardly rectifying potassium channel KCNH2, sequence (Q12809 whole entry): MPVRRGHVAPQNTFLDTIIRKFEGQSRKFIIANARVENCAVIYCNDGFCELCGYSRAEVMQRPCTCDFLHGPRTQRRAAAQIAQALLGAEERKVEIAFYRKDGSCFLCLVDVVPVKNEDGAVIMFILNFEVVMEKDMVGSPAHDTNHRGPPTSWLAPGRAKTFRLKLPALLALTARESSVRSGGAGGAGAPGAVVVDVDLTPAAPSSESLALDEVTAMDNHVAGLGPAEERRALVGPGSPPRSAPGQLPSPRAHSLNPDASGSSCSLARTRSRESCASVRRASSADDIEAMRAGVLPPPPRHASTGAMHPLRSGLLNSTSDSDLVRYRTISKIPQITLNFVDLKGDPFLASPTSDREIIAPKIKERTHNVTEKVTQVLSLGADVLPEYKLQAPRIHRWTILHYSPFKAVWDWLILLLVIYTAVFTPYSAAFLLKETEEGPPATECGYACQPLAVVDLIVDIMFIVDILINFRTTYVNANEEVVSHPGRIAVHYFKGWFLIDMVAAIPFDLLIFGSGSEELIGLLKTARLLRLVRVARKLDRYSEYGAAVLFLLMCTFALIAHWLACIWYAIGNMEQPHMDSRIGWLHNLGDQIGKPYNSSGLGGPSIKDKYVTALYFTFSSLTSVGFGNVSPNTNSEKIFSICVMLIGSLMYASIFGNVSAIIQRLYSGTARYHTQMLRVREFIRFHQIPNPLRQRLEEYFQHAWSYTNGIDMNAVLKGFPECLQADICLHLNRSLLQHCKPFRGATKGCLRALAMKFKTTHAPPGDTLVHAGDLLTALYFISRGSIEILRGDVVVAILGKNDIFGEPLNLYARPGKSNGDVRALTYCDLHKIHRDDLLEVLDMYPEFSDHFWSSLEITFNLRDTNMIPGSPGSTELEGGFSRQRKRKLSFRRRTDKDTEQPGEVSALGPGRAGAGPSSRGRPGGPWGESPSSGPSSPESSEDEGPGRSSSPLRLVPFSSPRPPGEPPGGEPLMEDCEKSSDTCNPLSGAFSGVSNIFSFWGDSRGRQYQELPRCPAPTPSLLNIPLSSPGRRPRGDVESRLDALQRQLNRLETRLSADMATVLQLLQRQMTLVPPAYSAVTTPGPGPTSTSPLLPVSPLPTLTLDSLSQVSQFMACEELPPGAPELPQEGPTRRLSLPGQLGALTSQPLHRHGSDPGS

[6] = molecular target: T4, Alpha-2A adrenergic receptor (Homo sapiens, UniProt P08913); format: cell membranes, Sf9, Membrane; conditions: for IC50 / Ki: sf9
T4 sequence (P08913 whole entry): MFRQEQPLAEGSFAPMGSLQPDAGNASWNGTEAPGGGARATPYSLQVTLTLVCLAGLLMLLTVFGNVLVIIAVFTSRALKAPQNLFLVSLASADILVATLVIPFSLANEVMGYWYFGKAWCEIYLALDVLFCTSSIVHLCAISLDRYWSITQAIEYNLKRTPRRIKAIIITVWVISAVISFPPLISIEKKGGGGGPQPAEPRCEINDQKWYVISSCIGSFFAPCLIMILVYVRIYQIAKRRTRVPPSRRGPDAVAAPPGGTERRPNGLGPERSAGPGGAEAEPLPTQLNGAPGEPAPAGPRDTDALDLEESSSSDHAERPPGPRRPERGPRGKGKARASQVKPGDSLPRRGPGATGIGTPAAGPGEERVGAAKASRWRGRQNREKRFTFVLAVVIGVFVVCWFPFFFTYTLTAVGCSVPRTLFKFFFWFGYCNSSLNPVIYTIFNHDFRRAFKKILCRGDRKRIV

Row | Compound | IC50 (Cytochrome P450 1A2) | Ki (Cytochrome P450 1A2) | IC50 (D(1A) dopamine receptor) | IC50 (Cytochrome P450 2E1) | Ki (Cytochrome P450 2E1) | IC50 [1] | IC50 (Glycine receptor) | IC50 [2] | IC50 [3] | IC50 [4] | IC50 [5] | Ki [5] | IC50 [6] | further results
1 | CN(C)[C@@H]1C(O)=C(C(N)=O)C(=O)[C@@]2(O)C(O)=C3C(=O)c4c(O)cccc4[C@@](C)(O)[C@H]3[C@H](O)[C@@H]12 [OXYTETRACYCLINE] | Not Active | Not Active | Not Active | Not Active | Not Active | Not Active | Not Active | Not Active | Not Active | Not Active | Not Active | Not Active | Not Active | 
2 | CC[C@H](C)[C@H](N)C1=N[C@H](C(=O)N[C@@H](CC(C)C)C(=O)N[C@H](CCC(=O)O)C(=O)N[C@H](C(=O)N[C@H]2CCCCNC(=O)[C@H](CC(N)=O)NC(=O)[C@@H](CC(=O)O)NC(=O)[C@H](Cc3cnc[nH]3)NC(=O)[C@@H](Cc3ccccc3)NC(=O)[C@H]([C@@H](C)CC)NC(=O)[C@@H](CCCN)NC2=O)[C@@H](C)CC)CS1 [BACITRACIN] ({Ileψ(thiazoline)Cys}-L[dE]IK[dOrn]I[dF]H[dD]N; lactam 4-C) | Not Active | Not Active | Not Active | Not Active | Not Active | Not Active | Not Active | Not Active | Not Active | Not Active | Not Active | Not Active | Not Active | 
3 | GOLD SODIUM THIOMALATE | Not Active | Not Active | Not Active | Not Active | Not Active | Not Active | Not Active | Not Active | Not Active | Not Active | Not Active | Not Active | Not Active | Ki (D(1A) dopamine receptor): Not Active; Ki [1]: Not Active; Ki (Glycine receptor): Not Active; Ki [2]: Not Active; Ki [3]: Not Active; Ki [4]: Not Active; Ki [6]: Not Active
4 | CISPLATIN | Not Active | Not Active | Not Active | Not Active | Not Active | Not Active | Not Active | Not Active | Not Active | Not Active | Not Active | Not Active | Not Active | Ki (D(1A) dopamine receptor): Not Active; Ki [1]: Not Active; Ki (Glycine receptor): Not Active; Ki [2]: Not Active; Ki [3]: Not Active; Ki [4]: Not Active; Ki [6]: Not Active
5 | COC(=O)[C@H](c1ccccc1Cl)N1CCc2sccc2C1 [CLOPIDOGREL] | Not Active | Not Active | Not Active | Not Active | Not Active | Not Active | Not Active | Not Active | Not Active | Not Active | Not Active | Not Active | Not Active | 
6 | CN1C[C@H](C(=O)N[C@]2(C)O[C@@]3(O)[C@@H]4CCCN4C(=O)[C@H](Cc4ccccc4)N3C2=O)C=C2c3cccc4[nH]cc(c34)C[C@H]21 [ERGOTAMINE] | Not Active | Not Active |  | Not Active | Not Active | Not Active | Not Active |  | Not Active | Not Active | Not Active | Not Active |  | pIC50 (D(1A) dopamine receptor; read-out: IC50): 5.76; pKi (D(1A) dopamine receptor; read-out: Ki): 6.06; pIC50 ([2]; read-out: IC50): 8.09; pKi ([2]; read-out: Ki): 8.34; pIC50 ([6]; read-out: IC50): 8.67; pKi ([6]; read-out: Ki): 9.10
7 | CCOC(=O)c1ccc(N)cc1 [BENZOCAINE] | Not Active | Not Active | Not Active | Not Active | Not Active | Not Active | Not Active | Not Active | Not Active | Not Active | Not Active | Not Active | Not Active | 
8 | Oc1cccc2cccnc12 [OXYQUINOLINE] | Not Active | Not Active | Not Active | Not Active | Not Active | Not Active | Not Active | Not Active | Not Active | Not Active | Not Active | Not Active | Not Active | 
9 | COc1ccc2cc(CC(=O)O)ccc2c1 | Not Active | Not Active | Not Active | Not Active | Not Active | Not Active | Not Active | Not Active | Not Active | Not Active | Not Active | Not Active | Not Active | 
